# Key:
# ATF-3 = ATF-3 IHC staining in pre- and post-dose tumor biopsies; type: in vivo, human; details: TPEC, 1.76 mg/m^2; seven evaluable tumor pairs
# Experimental: This open-label, non-randomized, dose-escalation phase 1 study was conducted at 7 sites in the United States and Canada, with patients enrolled from March 02, 2009 to January 10, 2012. The primary objective of the trial was to determine the safety profile, establish the maximum tolerated dose (MTD), and inform the recommended phase 2 dose of IV ixazomib in patients with non-hematologic malignancies. Secondary objectives were to characterize the pharmacokinetics and pharmacodynamics of IV ixazomib in blood and to evaluate disease response. Drug distribution and target engagement in post-dose tumor samples was measured by determining the increase in ATF-3 levels in post-dose tumor samples compared with pre-dose samples by immunohistochemistry (IHC).
# Tumor biopsies were analyzed for the presence of ixazomib using a quantified LC/MS/MS methodology validated in xenograft models. Expression of ATF-3 was measured in the TPEC using an IHC staining assay developed and validated using preclinical and human primary tumor samples. For this assay, formalin-fixed, paraffin-embedded tumor biopsy samples were obtained pre- and post-treatment (at 4–24 h post-dosing on day 1 or day 4 of cycle 1). […] After staining, whole slides were scanned and analyzed to calculate the percentage ATF-3-positive area for each section using the Genie™ (Aperio® ePathology Solutions) pattern recognition tool. […]
# [1] = system: patients with advanced non-hematologic malignancies; experiment: Safety: adverse events graded by NCI-CTCAE v3.0, phase 1 study of IV ixazomib; type: in vivo
# Description: Patients received ixazomib as an IV bolus on days 1, 4, 8, and 11 of a 21-day cycle, for up to 12 cycles, or until disease progression or unacceptable toxicity. Patients who were thought to potentially benefit from prolonged therapy could receive continued treatment beyond 12 cycles according to the treating physician’s consideration. Patients could receive prophylactic antiviral therapy; prophylactic antidiarrheals and antiemetics were not employed initially but could be considered upon development of diarrhea or nausea/vomiting.
# AEs were monitored throughout the study and were graded according to National Cancer Institute Common Terminology Criteria for Adverse Events (NCI-CTCAE) v3.0. Response assessments were undertaken by investigators using a consistent imaging modality in accordance with RECIST 1.0 [23] on days 18–21 of cycle 2 and subsequent cycles. For patients with prostate cancer, response and progressive disease were based on RECIST for measurable neoplastic disease or on measurement of serum PSA per modified PCWG2 criteria in the absence of measurable sites.
# The safety population included all patients who received ≥1 dose of ixazomib, and the DLT-evaluable population, which was used for determination of the MTD, comprised patients who received all cycle 1 doses of ixazomib or experienced a DLT in cycle 1. […] The response-evaluable population included all patients who received ≥1 dose of ixazomib, had measurable disease at baseline, and had ≥1 post-baseline disease assessment. Approximately 16 response-evaluable patients were planned to be evaluated in each MTD expansion cohort.
# All efficacy and safety data were summarized using descriptive statistics. Pharmacokinetic and pharmacodynamic parameters were calculated using noncompartmental methods (WinNonlin software v5.3).
# [2] = Ixazomib in tumor biopsies (LC/MS/MS); type: in vivo, human; details: TPEC, 1.76 mg/m^2; 10 evaluable patients
# Experimental: Tumor biopsies were analyzed for the presence of ixazomib using a quantified LC/MS/MS methodology validated in xenograft models. Expression of ATF-3 was measured in the TPEC using an IHC staining assay developed and validated using preclinical and human primary tumor samples. For this assay, formalin-fixed, paraffin-embedded tumor biopsy samples were obtained pre- and post-treatment (at 4–24 h post-dosing on day 1 or day 4 of cycle 1). Six 5 μm sections from each tumor sample were then cut (10 μm apart) and stained with antibody to ATF-3 (Santa Cruz Biotechnology, Inc., sc-188, lot:K1908) on a Discovery XT autostainer (Ventana Medical Systems, Inc.). After staining, whole slides were scanned and analyzed to calculate the percentage ATF-3-positive area for each section using the Genie™ (Aperio® ePathology Solutions) pattern recognition tool. The ATF-3-positive area was measured within the tumor region using the Positive Pixel Count algorithm, and the percentage ATF-3-positive area/total tumor area was then calculated for each section.
# Approximately 16 patients were planned to be enrolled to the TPEC to estimate ixazomib concentrations in tumors and target engagement as ATF-3 expression levels. […] This value was used to determine the minimum number of sections (n = 6) for pharmacodynamic analysis and the size of the fold change in ATF-3 that could be detected with 80 % power. […]
compound,measurement,setting,value
CC(C)C[C@H](NC(=O)CNC(=O)c1cc(Cl)ccc1Cl)B(O)O [ixazomib],Paired tumor samples with statistically significant increase in post-dose ATF-3 levels (p <0.05),ATF-3,Six of the seven
same,Any on-study deaths,[1]; Dose-escalation cohort (n=23),3 (13) n (%)
same,Any on-study deaths,[1]; MTD expansion cohort H&N (n=22),2 (9) n (%)
same,Any on-study deaths,[1]; MTD expansion cohort NSCLC (n=20),0 n (%)
same,Any on-study deaths,[1]; MTD expansion cohort PC (n=11),0 n (%)
same,Any on-study deaths,[1]; MTD expansion cohort STS (n=20),1 (5) n (%)
same,Any on-study deaths,[1]; MTD expansion cohort TPEC (n=20),1 (5) n (%)
same,Any on-study deaths,[1]; Total (N=116),7 (6) n (%)
same,Drug-related AE: alopecia,"[1]; human, in vivo",< 1%
same,Drug-related AE: circumoral edema,"[1]; human, in vivo",< 1%
same,Drug-related AE: dermatitis acneiform,"[1]; human, in vivo",2%
same,Drug-related AE: dry skin,"[1]; human, in vivo",2%
same,Drug-related AE: erythema nodosum,"[1]; human, in vivo",< 1%
same,Drug-related AE: exfoliative rash,"[1]; human, in vivo",< 1%
same,Drug-related AE: night sweats,"[1]; human, in vivo",< 1%
same,Drug-related AE: petechiae,"[1]; human, in vivo",< 1%
same,Drug-related AE: pruritus,"[1]; human, in vivo",4%
same,Drug-related AE: rash,"[1]; human, in vivo",6%
same,Drug-related AE: rash erythematous,"[1]; human, in vivo",9%
same,Drug-related AE: rash macular,"[1]; human, in vivo",13%
same,Drug-related AE: rash maculo-papular,"[1]; human, in vivo",17%
same,Drug-related AE: rash papular,"[1]; human, in vivo",10%
same,Drug-related AE: rash pruritic,"[1]; human, in vivo",13%
same,Drug-related AE: skin exfoliation,"[1]; human, in vivo",< 1%
same,Drug-related AE: skin hyperpigmentation,"[1]; human, in vivo",< 1%
same,Drug-related AE: swelling face,"[1]; human, in vivo",< 1%
same,Drug-related AE: urticaria,"[1]; human, in vivo",< 1%
same,Drug-related PN NEC,"[1]; human, in vivo",15%
same,"Drug-related PN NEC, grade 1","[1]; human, in vivo",6 n
same,"Drug-related PN NEC, grade 2","[1]; human, in vivo",8 n
same,Drug-related grade ≥3 AE: erythema nodosum,"[1]; human, in vivo",< 1%
same,Drug-related grade ≥3 AE: rash,"[1]; human, in vivo",< 1%
same,Drug-related grade ≥3 AE: rash erythematous,"[1]; human, in vivo",2%
same,Drug-related grade ≥3 AE: rash macular,"[1]; human, in vivo",3%
same,Drug-related grade ≥3 AE: rash maculo-papular,"[1]; human, in vivo",7%
same,Drug-related grade ≥3 AE: rash papular,"[1]; human, in vivo",< 1%
same,Drug-related grade ≥3 AE: rash pruritic,"[1]; human, in vivo",3%
same,Drug-related grade ≥3 fatigue,"[1]; human, in vivo",9%
same,Drug-related grade ≥3 thrombocytopenia,"[1]; human, in vivo",23%
same,Drug-related serious AE: dehydration,"[1]; human, in vivo",3%
same,Drug-related serious AE: fatigue,"[1]; human, in vivo",3%
same,Drug-related serious AE: nausea,"[1]; human, in vivo",3%
same,Drug-related serious AE: thrombocytopenia,"[1]; human, in vivo",6%
same,Drug-related serious AE: vomiting,"[1]; human, in vivo",3%
same,Drug-related serious AEs,"[1]; human, in vivo",28%
same,Drug-related thrombocytopenia,"[1]; human, in vivo",45%
same,"Duration of rash, median","[1]; human, in vivo",15 days
same,"Duration of rash, range","[1]; human, in vivo",4 to 90 days
same,Grade 3 PN NEC,"[1]; human, in vivo",3%
same,Patients who discontinued ixazomib due to treatment-emergent AEs,"[1]; human, in vivo",15%
same,Patients who required platelet transfusions,"[1]; human, in vivo",4%
same,Patients with ≥1 drug-related AE,"[1]; human, in vivo",90%
same,Patients with ≥1 drug-related grade ≥3 AE,"[1]; human, in vivo",57%
same,Patients with ≥1 treatment-emergent AE,"[1]; human, in vivo",99%
same,Patients with ≥1 treatment-emergent grade ≥3 AE,"[1]; human, in vivo",72%
same,Drug-related grade ≥3 skin and subcutaneous (SC) tissue disorders,"[1]; human, in vivo, sc",16%
same,Treatment-related skin and subcutaneous (SC) tissue disorders,"[1]; human, in vivo, sc",53%
same,On-study deaths,[1]; none considered treatment-related,seven
same,Ixazomib in post-dose tumor biopsies,[2],present in all 10 post-dose biopsies analyzed

# Source: PMC4435632, “Phase 1 study of ixazomib, an investigational proteasome inhibitor, in advanced non-hematologic malignancies” (Investigational New Drugs, 2015)
